# Measured values from patent publication US5721107A, “Antibodies to G protein coupled glutamate receptors” (priority 1995, dated 1998).
# Like-named read-outs stand apart in the source and are kept apart here.
# What was measured:
# [1] = target: T1, GluG R encoded by clone 45-A (Rattus norvegicus, UniProt P23385); type: cell-based; details: normalized to 100 μM L-glutamate
# T1 construct: expressed in transfected cells; host or cells: Xenopus oocytes injected with in vitro transcribed RNA of clone 45-A (cDNA in pVEGT')
# T1 sequence (P23385 33-1199): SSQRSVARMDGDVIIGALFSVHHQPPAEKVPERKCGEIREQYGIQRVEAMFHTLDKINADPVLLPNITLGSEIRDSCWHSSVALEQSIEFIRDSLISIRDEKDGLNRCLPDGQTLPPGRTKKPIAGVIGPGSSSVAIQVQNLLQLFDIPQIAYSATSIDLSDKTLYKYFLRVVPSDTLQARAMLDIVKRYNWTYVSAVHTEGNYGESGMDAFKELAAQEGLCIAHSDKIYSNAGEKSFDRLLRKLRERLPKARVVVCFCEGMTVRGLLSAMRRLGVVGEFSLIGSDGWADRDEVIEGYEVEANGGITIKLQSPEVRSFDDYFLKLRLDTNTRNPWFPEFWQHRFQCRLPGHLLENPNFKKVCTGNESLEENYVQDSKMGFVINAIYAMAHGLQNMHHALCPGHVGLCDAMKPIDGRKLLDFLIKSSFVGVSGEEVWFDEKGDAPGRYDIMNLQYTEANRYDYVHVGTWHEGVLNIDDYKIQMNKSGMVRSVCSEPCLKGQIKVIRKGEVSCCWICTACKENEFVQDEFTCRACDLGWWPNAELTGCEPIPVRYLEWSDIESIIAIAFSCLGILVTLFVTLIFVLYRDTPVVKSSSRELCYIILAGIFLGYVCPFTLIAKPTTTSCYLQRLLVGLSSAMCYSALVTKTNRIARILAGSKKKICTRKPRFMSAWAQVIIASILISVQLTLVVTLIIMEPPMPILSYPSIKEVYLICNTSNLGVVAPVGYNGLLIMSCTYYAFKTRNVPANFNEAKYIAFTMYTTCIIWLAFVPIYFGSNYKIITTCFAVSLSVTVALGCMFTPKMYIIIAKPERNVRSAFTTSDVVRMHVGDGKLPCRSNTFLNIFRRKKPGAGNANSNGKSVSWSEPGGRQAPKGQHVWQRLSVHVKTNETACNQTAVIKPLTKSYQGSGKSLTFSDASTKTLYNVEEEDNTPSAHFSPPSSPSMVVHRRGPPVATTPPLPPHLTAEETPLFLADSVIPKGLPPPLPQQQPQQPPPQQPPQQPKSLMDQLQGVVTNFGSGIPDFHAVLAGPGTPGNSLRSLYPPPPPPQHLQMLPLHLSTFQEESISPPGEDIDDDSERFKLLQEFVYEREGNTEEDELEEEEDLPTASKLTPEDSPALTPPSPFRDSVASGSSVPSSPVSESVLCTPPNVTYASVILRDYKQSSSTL
# [2] = test system: glutamate G protein coupled receptor; experiment: Voltage-clamp assay of injected oocytes, inhibition of glutamic acid-evoked current by putative antagonist; type: cell-based, rat; details: antagonist 1 mM
# Experimental: Voltage clamp assays were also carried out on injected oocytes to measure the inhibition by the putative glutamate G protein coupled receptor antagonist, 2-amino-3-phosphonopropionic acid (AP3).
# GluG R = experiment: Voltage-clamp response to quisqualate of oocytes injected with RNA from a subfractionated rat cerebellum cDNA library pool; type: cell-based; details: RNA from subfractionated pool of 14,000 colonies; approximately 100 ng RNA per oocyte; estimated from digital panel meter
# Experimental: Plasmid DNA from plates 25 to 32 were cesium chloride banded and transcribed into RNA as described above along with the positive parent pool Z99-25-32. Oocytes were injected with the RNA and voltage clamp assays, carried out as described above, identified pools Z104-25 and Z111-32 as being weakly positive, Z106-27 and Z109-30 as intermediately positive, and Z108-29 and Z110-31 as the most positive. The pool resulting in Z110-31 was chosen for further subdivision.
# To confirm the result, plasmid DNA from clone #45 was prepared, transcribed and assayed in oocytes as described above. […] FIG. 2 illustrates the data taken from voltage-clamp recordings at several stages in the subfractionation of the cerebellum library. […] The peak current was truncated by the chart recorder, but the actual peak current (estimated from a digital panel meter) was approximately 1300 nA.
# [3] = test system: rat G protein coupled glutamate receptor; experiment: Competition of tritiated glutamic acid binding to membrane preparations of transfected BHK cells; details: plus and minus quisqualate, 30 minutes, room temperature
# Experimental: Transfected cell lines expressing GluG R were identified by the binding of ^3 H-glutamate to membrane preparations from transfected cells. Cell lines expressing low to moderate levels of GluG R are used to set up functional screening assays.
# Clones of BHK 570 and BHK TK^- ts13 cells expressing the rat G protein coupled glutamate receptor cDNA were plated in two or three 150 mm maxi-plates culture dishes and were grown to confluency. The cells from each plate were scraped in 5 ml of PBS (phosphate buffered saline, Sigma Chemical Co., St. Louis, Mo.), which was pre-chilled to 4° C. The cells were removed to a chilled centrifuged tube, and the plates were each rinsed with 5 ml of chilled PBS and pooled with the cells. The chilled tubes were spun at 1,000 rpm for two minutes, and the supernatant was discarded. The cells were frozen at either -70° C. or on dry ice. In some cases, the cells were left overnight at -70° C. […] The filters were dried in a microwave oven and counted in a […].
# Protein determinations were carried out using a Coomassie Blue-based assay from Pierce Chemical Company (Rockford, Ill.) under conditions set forth by the manufacturer. One hundred microliters of undiluted cell homogenate or BSA standard was added to 2 ml of reagent and the optical density was measured at 595 nm. […]
# [4] = 100 μM, saturating concentration
smiles,measurement,setting,value
"CN[C@H](CC(=O)O)C(=O)O [NMDA, N-methyl-D-aspartic acid]",response of oocytes to L-glutamic acid analog (effectiveness),[1]; 100 μM NMDA+10 μM glycine,ineffective
"Cc1onc(O)c1CC(N)C(=O)O (stereo not drawn) [AMPA, α-amino-3-hydroxy-5-methyl-isoxazole-4-propionic acid]",response of oocytes to L-glutamic acid analog (effectiveness),[1]; [4],ineffective
C=C(C)[C@H]1CN[C@H](C(=O)O)[C@H]1CC(=O)O [kainic acid],response of oocytes to L-glutamic acid analog (effectiveness),"[1]; 1 mM, saturating concentration",ineffective
"NC(CP(=O)(O)O)C(=O)O (racemic) [DL-AP3, 2-amino-3-phosphonopropionic acid]","current evoked by 10 μM glutamic acid, reduced to % of the control",[2],59.3±7.3 % of the control
N[C@@H](CC(=O)O)C(=O)O [aspartic acid],response of oocytes to L-glutamic acid analog (effectiveness),"[1]; 1 mM, saturating concentration",ineffective
"N[C@@H](Cn1oc(=O)[nH]c1=O)C(=O)O [Quisqualic acid, quisqualic acid]",peak current in response to quisqualate,GluG R,approximately 1300 nA
same,competitive binding to glutamate receptor expressed by transfected BHK cells,[3],able to competitively bind the glutamate receptor
"NC(CCP(=O)(O)O)C(=O)O (centres unmarked) [APB, 2-amino-4-phosphonobytyric acid]",response of oocytes to L-glutamic acid analog (effectiveness),[1]; [4],ineffective
